The subject of assay [1] is C. parvum. Description: Egress, motility, reinvasion assay (PV ratio). As to conditions: compound at EC90; for Egress and Reinvasion Assay: Mean PV ratios (19.5h:6h), Average: average of replicates; for Egress and Reinvasion Assay: Mean PV ratios (19.5h:6h), Replicate 1a: single replicate 1; for Egress and Reinvasion Assay: Mean PV ratios (19.5h:6h), Replicate 2a: single replicate 2; for Egress and Reinvasion Assay: Mean PV ratios (19.5h:6h), Replicate 3a: single replicate 3; for Egress and Reinvasion Assay: Mean PV ratios (19.5h:6h), Replicate 4a: single replicate 4.
Experimental: For quantification of parasitophorous vacuoles over time, HCT-8 cells were grown to greater than 90% confluence in 384-well plates and infected with 11,000 oocysts after triggering excystation.

The subject of assay [2] is C. parvum. The format is cell-based, Cryptosporidium parvum. As to conditions: compound at EC90; for Invasion Assay: Mean % Inhibition (parasites), Average: average of replicates; for Invasion Assay: Mean % Inhibition (parasites), Replicate 1a: single biological replicate 1; for Invasion Assay: Mean % Inhibition (parasites), Replicate 2a: single biological replicate 2; for Invasion Assay: Mean % Inhibition (parasites), Replicate 3a: single biological replicate 3; for Invasion Assay: Mean % Inhibition (parasites), Replicate 4a: single biological replicate 4.

In assay [3] the test system is C. parvum. Description: 48 h Cryptosporidium growth inhibition assay. The class given is cell-based, Cryptosporidium parvum. Particulars: for EC90: compound added 3 h post-infection, read at 48 h; for pEC50: read-out: 0 − 48 h V. villosa lectin (asexual): EC50, asexual growth assay, first 48 h, range in brackets. The gist of the method: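 EC50 and EC90 came from automated fluorescence imaging counts of parasitophorous vacuoles (Vicia villosa lectin stain), with Hoechst-stained host nuclei tracked alongside. The compound was present from 3 h to 48 h after infecting confluent HCT-8 cells with 5500 excysted C. parvum (Iowa) oocysts per well, at 37 °C.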

The mark [4] stands for this setting: read-out: Regular 3 to 48 h assay in vitro EC90, C. parvum in HCT-8 cells.

Each structure is given as a SMILES string. pEC50: −log10 of the molar value. “And” between values parts separate entries of the source, which are not always exact repeats. Equal values may be shown once. Read-outs that look alike come from different tables or passages of the source.

The EC90 is the concentration at which the effect reaches the 90% level. As to `CSc1ccccc1C(=O)Nc1nc(-c2ccccn2)cs1` [MMV001246], in the assay with C. parvum [1], the “Egress and Reinvasion Assay: Mean PV ratios (19.5h:6h), Average” value amounted to 0.43; the “Egress and Reinvasion Assay: Mean PV ratios (19.5h:6h), Replicate 1a” value is reported as 0.60; the “Egress and Reinvasion Assay: Mean PV ratios (19.5h:6h), Replicate 2a” value amounted to 0.25. For the same compound, in the assay with C. parvum [2], the “Invasion Assay: Mean % Inhibition (parasites), Average” value was -7.41%; the “Invasion Assay: Mean % Inhibition (parasites), Replicate 1a” value was -15%; the “Invasion Assay: Mean % Inhibition (parasites), Replicate 2a” value was 0.521%. Besides, the EC90 in the assay on C. parvum [3] (setting [4]) was determined as 5390 nM.
In general, pEC50 refers to the EC50 on a negative log10 scale, so that one unit is a factor of ten. As to `O=C(Nc1ccc(Cl)cc1)N1CCN(c2ccc3nncn3n2)CC1` [D-1], in the assay with C. parvum [1], the “Egress and Reinvasion Assay: Mean PV ratios (19.5h:6h), Average” value is on record as 1.86. In addition, the “Egress and Reinvasion Assay: Mean PV ratios (19.5h:6h), Replicate 1a” value with C. parvum [1] was 1.12. Also, the “Egress and Reinvasion Assay: Mean PV ratios (19.5h:6h), Replicate 2a” value in the assay on C. parvum [1] was 1.70. Besides, in the assay with C. parvum [1], the “Egress and Reinvasion Assay: Mean PV ratios (19.5h:6h), Replicate 3a” value turned out to be 3.12. Further, the “Egress and Reinvasion Assay: Mean PV ratios (19.5h:6h), Replicate 4a” value in the assay with C. parvum [1] came to 1.50. Besides, in the assay on C. parvum [2], the “Invasion Assay: Mean % Inhibition (parasites), Average” value is reported as -25.16%. Also, the “Invasion Assay: Mean % Inhibition (parasites), Replicate 1a” value in the assay with C. parvum [2] is given as -22%. Also, the “Invasion Assay: Mean % Inhibition (parasites), Replicate 2a” value in the assay on C. parvum [2] is -29%. The “0 - 48 h V. villosa lectin (asexual): Mean % Inhibition (parasites)” value in the assay on C. parvum [3] (D-1 at log conc (µM) 0.00, replicates 1-3 in separate columns) was -13.99% and -26.93% and 12.39%; with C. parvum [3] (D-1 at log conc (µM) 0.30, replicates 1-3 in separate columns) it was 44.90% and 34.43% and 28.35%; in the assay on C. parvum [3] (D-1 at log conc (µM) 0.48, replicates 1-3 in separate columns) it was 62.14% and 71.97% and 62.62%; in the assay with C. parvum [3] (D-1 at log conc (µM) 0.60, replicates 1-3 in separate columns) it was 81.17% and 79.33% and 75.56%; in the assay on C. parvum [3] (D-1 at log conc (µM) 0.85, replicates 1-3 in separate columns), 91.46% and 90.48% and 90.58%; in the assay with C. parvum [3] (D-1 at log conc (µM) 1.08, replicates 1-3 in separate columns), 93.34% and 92.97% and 93.35%. Besides, the “0 - 48 h V. villosa lectin (asexual): Mean % Inhibition (parasites)” value with C. parvum [3] (D-1 at log conc (µM) 1.40, replicates 1-3 in separate columns) is 93.98% and 94.31% and 94.76%; in the assay with C. parvum [3] (D-1 at log conc (µM) -0.70, replicates 1-3 in separate columns), -20.95% and -21.90% and -17.53%; in the assay with C. parvum [3] (D-1 at log conc (µM) -1.40, replicates 1-3 in separate columns) it was -23.49% and -23.30% and -25.37%. Further, the pEC50 in the assay on C. parvum [3] is 5.68. For the same compound, in the assay with C. parvum [3] (setting [4]), the EC90 stood at 5100 nM.
For `c1ccc(CNc2nc(Nc3ccccc3)nc3ccccc23)cc1` [B-1], in the assay on C. parvum [1], the “Egress and Reinvasion Assay: Mean PV ratios (19.5h:6h), Average” value is reported as 1.58; the “Egress and Reinvasion Assay: Mean PV ratios (19.5h:6h), Replicate 1a” value worked out at 1.28; the “Egress and Reinvasion Assay: Mean PV ratios (19.5h:6h), Replicate 2a” value came to 1.59; the “Egress and Reinvasion Assay: Mean PV ratios (19.5h:6h), Replicate 3a” value is 1.80. The “Egress and Reinvasion Assay: Mean PV ratios (19.5h:6h), Replicate 4a” value with C. parvum [1] was 1.65. For the same compound, in the assay on C. parvum [2], the “Invasion Assay: Mean % Inhibition (parasites), Average” value is 56.43%; the “Invasion Assay: Mean % Inhibition (parasites), Replicate 1a” value is reported as 55%; the “Invasion Assay: Mean % Inhibition (parasites), Replicate 2a” value was 63%; the “Invasion Assay: Mean % Inhibition (parasites), Replicate 3a” value was 42%. For the same compound, in the assay with C. parvum [2], the “Invasion Assay: Mean % Inhibition (parasites), Replicate 4a” value worked out at 66%. For the same compound, in the assay on C. parvum [2] (yes/no grouping by phenotypic assay result), the Sporozoite invasion result was “yes”. In addition, in the assay on C. parvum [3] (B-1 at log[MMV006169] (µM) 0.22, replicates 1-2), the “0 - 48 h V. villosa lectin (asexual): Mean % Inhibition (parasites)” value was 61.21% and 81.70%. The “0 - 48 h V. villosa lectin (asexual): Mean % Inhibition (parasites)” value with C. parvum [3] (B-1 at log[MMV006169] (µM) 0.52, replicates 1-2) is 87.47% and 92.32%. Moreover, in the assay on C. parvum [3] (B-1 at log[MMV006169] (µM) 0.82, replicates 1-2), the “0 - 48 h V. villosa lectin (asexual): Mean % Inhibition (parasites)” value was 91.12% and 90.37%. Also, the “0 - 48 h V. villosa lectin (asexual): Mean % Inhibition (parasites)” value with C. parvum [3] (B-1 at log[MMV006169] (µM) 1.00, replicates 1-2) is 88.49% and 90.28%. Besides, the “0 - 48 h V. villosa lectin (asexual): Mean % Inhibition (parasites)” value in the assay with C. parvum [3] (B-1 at log[MMV006169] (µM) -0.18, replicates 1-2) was 5.34% and 39.84%. Also, the “0 - 48 h V. villosa lectin (asexual): Mean % Inhibition (parasites)” value with C. parvum [3] (B-1 at log[MMV006169] (µM) -0.65, replicates 1-2) is -11.45% and 6.00%. Further, in the assay on C. parvum [3] (B-1 at log[MMV006169] (µM) -1.13, replicates 1-2), the “0 - 48 h V. villosa lectin (asexual): Mean % Inhibition (parasites)” value is -7.55% and -4.41%. The “0 - 48 h V. villosa lectin (asexual): Mean % Inhibition (parasites)” value with C. parvum [3] (B-1 at log[MMV006169] (µM) -1.61, replicates 1-2) was -3.87% and -15.36%. In addition, the “0 - 48 h V. villosa lectin (asexual): Mean % Inhibition (parasites)” value in the assay with C. parvum [3] (B-1 at log[MMV006169] (µM) -2.08, replicates 1-2) is -14.75% and -13.18%. For the same compound, the pEC50 with C. parvum [3] is 6.00. In addition, the EC90 with C. parvum [3] (setting [4]) stood at 2270 nM.
As for `O=C(Nc1ccc(Cl)c(Cl)c1)N1CCN(c2ccc3nncn3n2)CC1` [D-28], in the assay with C. parvum [1], the “Egress and Reinvasion Assay: Mean PV ratios (19.5h:6h), Average” value amounted to 1.28; the “Egress and Reinvasion Assay: Mean PV ratios (19.5h:6h), Replicate 1a” value is on record as 1.01; the “Egress and Reinvasion Assay: Mean PV ratios (19.5h:6h), Replicate 2a” value is on record as 1.19; the “Egress and Reinvasion Assay: Mean PV ratios (19.5h:6h), Replicate 3a” value turned out to be 1.91. For the same compound, the “Egress and Reinvasion Assay: Mean PV ratios (19.5h:6h), Replicate 4a” value in the assay with C. parvum [1] is recorded as 1.01. For the same compound, in the assay on C. parvum [2], the “Invasion Assay: Mean % Inhibition (parasites), Average” value is given as -13.23%; the “Invasion Assay: Mean % Inhibition (parasites), Replicate 1a” value is listed as -5%; the “Invasion Assay: Mean % Inhibition (parasites), Replicate 2a” value is recorded as -22%. Moreover, the EC90 with C. parvum [3] (setting [4]) stood at 1500 nM.
Turning to `CC(=O)O[C@@]12CO[C@@H]1C[C@H](O)[C@@]1(C)C(=O)[C@H](O)C3=C(C)[C@@H](OC(=O)[C@H](O)[C@@H](NC(=O)OC(C)(C)C)c4ccccc4)C[C@@](O)([C@@H](OC(=O)c4ccccc4)[C@H]21)C3(C)C` [Docetaxel], in the assay with C. parvum [1], the “Egress and Reinvasion Assay: Mean PV ratios (19.5h:6h), Average” value came to 1.76; the “Egress and Reinvasion Assay: Mean PV ratios (19.5h:6h), Replicate 1a” value amounted to 1.96; the “Egress and Reinvasion Assay: Mean PV ratios (19.5h:6h), Replicate 2a” value is 2.25; the “Egress and Reinvasion Assay: Mean PV ratios (19.5h:6h), Replicate 3a” value worked out at 1.23. Moreover, the “Egress and Reinvasion Assay: Mean PV ratios (19.5h:6h), Replicate 4a” value in the assay with C. parvum [1] turned out to be 1.60. Besides, in the assay on C. parvum [2], the “Invasion Assay: Mean % Inhibition (parasites), Average” value was -8.63%; the “Invasion Assay: Mean % Inhibition (parasites), Replicate 1a” value is given as -1.34%; the “Invasion Assay: Mean % Inhibition (parasites), Replicate 2a” value is -16%. Further, the EC90 with C. parvum [3] (Cryptosporidium parvum, HCT-8, read-out: Regular 3 to 48 h assay in vitro EC90, C. parvum in HCT-8 cells) was 1000 nM.
As for `CN(C)S(=O)(=O)c1ccc(C(=O)N2CCN(c3ccc4nncn4n3)CC2)cc1` [D-44], in the assay on C. parvum [1], the “Egress and Reinvasion Assay: Mean PV ratios (19.5h:6h), Average” value came out at 2.21; the “Egress and Reinvasion Assay: Mean PV ratios (19.5h:6h), Replicate 1a” value was 2.22; the “Egress and Reinvasion Assay: Mean PV ratios (19.5h:6h), Replicate 2a” value is given as 2.32; the “Egress and Reinvasion Assay: Mean PV ratios (19.5h:6h), Replicate 3a” value is 1.73. In addition, the “Egress and Reinvasion Assay: Mean PV ratios (19.5h:6h), Replicate 4a” value in the assay on C. parvum [1] amounted to 2.75. In addition, the “Egress and Reinvasion Assay: Mean PV ratios (19.5h:6h), Replicate 5a” value in the assay on C. parvum [1] (single replicate 5) came out at 1.96. Moreover, the “Egress and Reinvasion Assay: Mean PV ratios (19.5h:6h), Replicate 6a” value with C. parvum [1] (single replicate 6) worked out at 2.29. Further, in the assay with C. parvum [2], the “Invasion Assay: Mean % Inhibition (parasites), Average” value is recorded as -11.48%; the “Invasion Assay: Mean % Inhibition (parasites), Replicate 1a” value is recorded as -25%; the “Invasion Assay: Mean % Inhibition (parasites), Replicate 2a” value is reported as -14%; the “Invasion Assay: Mean % Inhibition (parasites), Replicate 3a” value turned out to be 2%. Besides, the “Invasion Assay: Mean % Inhibition (parasites), Replicate 4a” value in the assay on C. parvum [2] is listed as -9%. For the same compound, the EC90 with C. parvum [3] (setting [4]) is 11600 nM.
For `CN(C)c1ccc(C(=C2C=CC(=[N+](C)C)C=C2)c2ccc(N(C)C)cc2)cc1` [Gentian Violet], in the assay with C. parvum [1], the “Egress and Reinvasion Assay: Mean PV ratios (19.5h:6h), Average” value was determined as 1.37; the “Egress and Reinvasion Assay: Mean PV ratios (19.5h:6h), Replicate 1a” value is on record as 1.01; the “Egress and Reinvasion Assay: Mean PV ratios (19.5h:6h), Replicate 2a” value turned out to be 1.73. Moreover, in the assay on C. parvum [2], the “Invasion Assay: Mean % Inhibition (parasites), Average” value is on record as -6.62%; the “Invasion Assay: Mean % Inhibition (parasites), Replicate 1a” value was -1.27%; the “Invasion Assay: Mean % Inhibition (parasites), Replicate 2a” value was -12%. Also, the EC90 with C. parvum [3] (setting [4]) worked out at 1050 nM.

The values are drawn from publication PMC6478823, “A suite of phenotypic assays to ensure pipeline diversity when prioritizing drug-like Cryptosporidium growth inhibitors” (Nature Communications, 2019).
